{"source": "patent US10302663B2", "about": "“Method of assessing pancreatic beta-cell function” (METABOLON, INC., priority 2011, dated 2019)", "key": {"INS-1e cells": {"tested_on": "INS-1e cells", "experiment": "Glucose-stimulated insulin release in INS-1e cells", "type": "cell-based, rat", "conditions": "INS-1e cells incubated 48 h with physiological concentrations of metabolite, then 3.3, 11, 20 mM glucose or 20 mM glucose+10 mM arginine, FIG. 2", "description": "Clonal INS-1e cells, derived and selected from a parental rat insulinoma INS-1 cell line (University of Geneva, Geneva, Switzerland), were grown in monolayer culture in RPMI 1640 medium containing 11.1 mM glucose. The culture medium was supplemented with 10% heat-inactivated fetal calf serum, 1 mM sodium pyruvate, 10 mM HEPES, 2 mM glutamine, 50 μmol/liter β-mercaptoethanol, 100 U/ml penicillin, and 100 μg/ml streptomycin. Cells were cultured at 37 C in a humidified 95% air-5% CO2 atmosphere. Cells were seeded onto wells at a density of 1.5×10^5 cells/well at least 96 h before using them in the insulin secretion experiments. Tissue culture reagents were obtained from Life Technologies, Inc. Invitrogen (Basel, Switzerland).\nThe insulin secretory response to glucose was tested in INS-1e cells. When cells had reached approximately 80% confluence, cells were incubated for 48 h in fresh RPMI 1640 medium containing 11.1 mM glucose, in the presence or absence of different physiological concentrations of metabolites alpha-hydroxybutyrate (2-HB) (Sigma-Aldrich) and linoleoyl-glycerophosphocholine (L-GPC) (Avanti Polar Lipids). Next, cells were maintained for 1 h in glucose-free Krebs-Ringer bicarbonate HEPES buffer containing 135 mm NaCl, 3.6 mm KCl, 5 mm NaHCO3, 0.5 mm Na H2PO4, 0.5 mm MgCl2, 1.5 mm CaCl2, 10 mm HEPES, and BSA 0.1% (glucose-free; pH 7.4; starvation period) and then washed with glucose-free Krebs-Ringer bicarbonate-HEPES buffer and subsequently incubated for […] with Krebs-Ringer bicarbonate-HEPES buffer containing 3.3, 11, 20 mM glucose, or 20 mM glucose+10 mM arginine. At the end of incubation, supernatants were collected to measure insulin concentration (Linco Research, St. Charles, Mo.). Cellular insulin contents were determined in acid-ethanol extracts. The insulin secretory response to glucose was expressed as the ratio of insulin concentration in the supernatant to the cellular insulin content."}, "[1]": {"experiment": "Beta-cell biomarker levels in fasted plasma in response to pioglitazone therapy in IGT subjects", "type": "in vivo, human", "conditions": "pioglitazone 45 mg/day, 2.4 years, baseline vs study end", "description": "In another study, the relationship between changes in the IS/IR Disposition index and changes in the levels of the beta-cell function biomarkers, AHB and LGPC following drug treatment were determined. The study cohort consisted of 431 IGT subjects (FPG=105, 2-h PG [OGTT]=168, HbA1C=5.5%) who were randomized to pioglitazone (45 mg/day) or placebo and followed for 2.4 years. Fasted plasma samples were analyzed at baseline and study end for AHB, LGPC, insulin, HbA1c and Matsuda index.\nA method for measuring each of the biomarkers listed in Table 4 in EDTA human plasma was developed. Human plasma samples were spiked with internal standards and subjected to protein precipitation as described below. Following centrifugation, the supernatant was removed and injected onto a Waters Acquity/Thermo Quantum Ultra LC-MS-MS system using four different chromatographic systems (column/mobile phase combinations)."}}}
{"smiles": "CC[C@H](O)C(=O)O", "note": "[AHB, 2-hydroxybutyrate]", "values": [{"measurement": "effect on glucose-stimulated insulin release (ratio of insulin in supernatant to cellular insulin content)", "setting": "INS-1e cells", "value": "inhibited the glucose stimulated release of insulin"}, {"measurement": "effect on glucose-stimulated insulin release (ratio of insulin in supernatant to cellular insulin content)", "setting": "INS-1e cells; listed as 2-hydroxybutyrate", "value": "inhibitory effect"}]}
{"smiles": "CCCCC/C=C\\C/C=C\\CCCCCCCC(=O)OC[C@@H](O)COP(=O)([O-])OCC[N+](C)(C)C", "note": "[LGPC, linoleoyl lysophosphatidylcholine]", "values": [{"measurement": "effect on glucose-stimulated insulin release (ratio of insulin in supernatant to cellular insulin content)", "setting": "INS-1e cells", "value": "stimulated the glucose stimulated release of insulin"}, {"measurement": "effect on glucose-stimulated insulin release (ratio of insulin in supernatant to cellular insulin content)", "setting": "INS-1e cells; listed as Linoleoyl-GPC", "value": "stimulatory effect"}]}
{"smiles": "CCc1ccc(CCOc2ccc(CC3SC(=O)NC3=O)cc2)nc1", "note": "(stereo not drawn) [PIO, pioglitazone]", "values": [{"measurement": "Fold change of Linoleoyl-GPC Before and after PIO", "setting": "[1]; p<0.005", "value": "1.21 ↑"}, {"measurement": "Fold change of α-HB Before and after PIO", "setting": "[1]; p=0.001", "value": "0.90 ↓"}]}
